# In US20120157401A1, “METHODS FOR TREATING NEUROFIBROMATOSIS” (PTC Therapeutics, Inc., priority 2009, published 2012):
# What was measured:
# [1] = tested on: soluble VEGF121 and VEGF165 isoforms; assay: ELISA of soluble VEGF121/165 production in HeLa cells during hypoxia or normoxia; format: cell-based, human; conditions: 48 hours
# Protocol: Experimental Design. HeLa (human cervical carcinoma) cell cultures were established under normoxic conditions (21% oxygen). HeLa cells increase VEGF production 4- to 5-fold in response to hypoxia. […] At the completion of treatment, the conditioned media were collected and the VEGF protein levels were assayed in an enzyme-linked immunosorbent assay (ELISA) with primary antibodies that recognize the soluble VEGF121 and VEGF165 isoforms (R & D Systems, Minneapolis, Minn., USA). To ensure that decreases in VEGF concentration were not due to cytotoxicity, cultures were assayed using a standard assay ([…]-GLO® Luminescent Cell Viability Assay; Promega, Madison, Wis., USA) that measures total cellular adenosine triphosphate (ATP) concentrations as an indicator of cell viability.
# HT1080 xenografts [2] = assay: HT1080 xenograft dose response: tumor growth; format: in vivo, athymic nude mice; conditions: 18 days
# Protocol: Experimental Study Design. HT1080 cells (5×10^6 cells/mouse) were implanted subcutaneously in male athymic nude mice.
# Tumor size was measured using calipers at periodic intervals during the study (data shown in Section 9.2.2). […] The study was ended after 18 days, when the vehicle treated tumors reached a mean volume of ˜1755 mm^3. […] Mice were sacrificed, and excised tumors were homogenized in buffer containing protease inhibitors. Both terminal intratumoral and pathologic plasma human VEGF levels were measured using an ELISA that recognizes human VEGF121 and VEGF165 (as described in Section 9.1.1.1). Intratumoral VEGF levels were normalized to the total tumor protein concentration, while pathologic plasma human VEGF levels were expressed in pg/mL of plasma.
# Experimental Design. The experimental design was reported in Section 9.1.2.2.
# MDA MB 468 xenografts = assay: Tumor perfusion by DCE-MRI in MDA-MB-468 xenografts; format: in vivo, athymic nude mice; conditions: 10 mg/kg oral QD
# Text: Experimental Design. Dynamic contrast-enhanced magnetic resonance imaging can be used preclinically and clinically to evaluate the anatomy of soft tissues, including the identification and accurate measurement of tumor volumes. In addition, evaluation of the intratumoral pharmacokinetics of contrast agents containing gadolinium can be used to measure vascular permeability characteristics. Coupling gadopentetate dimeglumine gadolinium to a […] like bovine serum albumin can reveal information about the necrotic (non-perfused) and non-necrotic (perfused) tumor volumes, and the percentage of vascular blood volume relative to the perfused tumor volume (known as the fractional blood volume [fBV]). Use of a […] tracer, gadopentetate dimeglumine, can reveal information regarding the volume transfer coefficient (K^trans), a variable that represents a combination of vascular permeability, vascular surface area, and blood flow.
# Before each DCE-MRI scan, mice were injected intravenously with gadolinium-containing contrast dyes (bovine serum albumin-gadopentetate dimeglumine conjugate at ˜0.03 mmol/kg followed by gadopentetate dimeglumine at ˜0.2 mmol/kg). Baseline DCE-MRI measurements were taken on Day −1, test Compounds were administered on Day 0 through Day 5, and additional DCE-MRI measurements were taken on Days 1, 3, and 5. Image analyses were conducted with customized software. Total tumor volumes were measured by semi-automatically segmenting a region of interest around an anatomical image of the tumor. Tumor volumes of necrotic and non-necrotic tissues were measured by applying the same semi-automated segmentation process to a contrast dyed image. fBV and K^trans were computed using a standard Kety PK model.
# HT1080 cells = assay: Cell cycle analysis by propidium iodide flow cytometry in HT1080 cells (percent cells in S-phase, Table 24); format: cell-based, human; conditions: HT1080, normoxic, 18 hours
# Protocol: Experimental Design. […] After treatment, cells were trypsinized, and stained with propidium iodide (PI) dye to measure DNA content of individual cells by flow cytometry. Output comprised histograms showing relative DNA content in 10,000 cells.
# While compounds which cause greater than 20% of the cells to accumulate in S-phase at 100 nM are considered active, a larger percentage of cells may be accumulated in S-phase at lower doses depending on the Compound, as shown in FIG. 12 for example.
# HT1080 xenografts [3] = assay: BrdU labeling of cells from HT1080 xenografts grown in nude mice; format: in vivo, athymic nude mice; conditions: Day 1, 2, 3; Compound #10 10 mg/kg oral QD, doxorubicin 6 mg/kg IP, bevacizumab 5 mg/kg IP
# Protocol: Experimental Design. HT1080 cells (5×10^6 cells/mouse) were implanted subcutaneously in male athymic nude mice.
# The mice were sacrificed 3 hours later, and the tumors collected. A single cell suspension was prepared from the tumor cells. The cells were permeabilized and an antibody to BrdU was used to stain cells that had entered S phase during the labeling period. The proportion of cells actively synthesizing DNA was determined by cell sorting.
# CYP3A4 = biological target: T1, CYP3A4 (Homo sapiens, UniProt P08684); assay: CYP inhibition: CYP3A4; format: in vitro ADME; conditions: human hepatic microsomes or recombinant isoenzymes
# T1 construct: host or cells: human hepatic microsomes or recombinant isoenzyme (not distinguished)
# Text: It is possible that in certain clinical trial subjects, such agents may need to be adjusted for dosing or replaced by alternative agents that are not metabolized by CYP2D6, particularly when such agents may have a low therapeutic index.
# [4] = 7-day oral toxicity study in dogs; format: in vivo
# [5] = Micronucleus study in rats by the oral route; format: in vivo
# Protocol: Genotoxicity was assessed in a battery of in vitro and in vivo studies that included a bacterial reverse mutation study, a chromosome aberration study in Chinese hamster ovary (CHO) cells, and a micronucleus study in rats by the oral route. The in vitro studies were performed in the presence and absence of an exogenous metabolic activation system.
# tumor perfusion = assay: Patients: tumor perfusion by DCE-MRI; format: in vivo, human
# Text: Tumor perfusion using DCE-MRI: Assessing tumor blood flow offers an additional parameter of a Compound's action that can confirm the downstream consequences of decreasing tumor VEGF. Measurement of blood flow in target lesions provides direct evidence of a Compound's action on tumors that can be correlated with plasma VEGF changes. Assessment of tumor perfusion using DCE-MRI may be used to evaluate the efficacy of a Compound using standard protocols (see., e.g., Morgan et al., J. Clin. Oncol., Nov. 1, 2003, 21(21):3955-64; Leach et al., Br. J. Cancer, May 9, 2005, 92(9):1599-610; Liu et al., J. Clin. Oncol., August 2005, 23(24): 5464-73; and Thomas et al., J. Clin. Oncol., Jun. 20, 2005, 23(18):4162-71).
# Tumor Perfusion with DCE-MRI. Subjects may undergo DCE-MRI for the target lesion of interest during the screening period and between 1 to 8 hours after the AM dose at various times throughout the treatment protocol.
# T1 sequence (P08684 whole entry): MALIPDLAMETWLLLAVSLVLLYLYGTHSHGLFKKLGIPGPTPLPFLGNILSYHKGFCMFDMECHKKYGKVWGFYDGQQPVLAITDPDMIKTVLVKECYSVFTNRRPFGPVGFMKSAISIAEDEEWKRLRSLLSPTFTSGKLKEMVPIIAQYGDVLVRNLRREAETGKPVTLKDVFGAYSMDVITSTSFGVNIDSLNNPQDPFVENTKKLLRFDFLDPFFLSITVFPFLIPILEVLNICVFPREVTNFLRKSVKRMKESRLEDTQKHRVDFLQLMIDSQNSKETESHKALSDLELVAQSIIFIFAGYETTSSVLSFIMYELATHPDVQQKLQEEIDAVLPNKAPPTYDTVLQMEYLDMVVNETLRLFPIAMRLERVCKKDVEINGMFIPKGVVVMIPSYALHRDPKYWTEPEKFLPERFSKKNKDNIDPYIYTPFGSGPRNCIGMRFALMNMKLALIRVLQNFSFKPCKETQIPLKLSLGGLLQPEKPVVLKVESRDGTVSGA
structure (smiles),measurement,setting,value
COc1ccc(C2c3[nH]c4ccc(Cl)cc4c3CCN2C(=O)Oc2ccc(Cl)cc2)cc1 (racemic) [Compound #10],Inhibition of stress-induced VEGF production (FIG. 25),[1]; hypoxia-induced,inhibit stress-induced VEGF production
same,Maximal decrease in VEGF concentration in conditioned media,[1]; hypoxic (1% oxygen),87%
same,Mean VEGF concentration in conditioned media at maximal decrease,[1]; hypoxic (1% oxygen),175 pg/mL
same,Decrease in VEGF concentration in conditioned media,[1]; normoxic,39%
same,Mean VEGF concentration in conditioned media in the presence of compound,[1]; normoxic,157 pg/mL
same,Toxicity on observing the animals,HT1080 xenografts [2]; HT1080 xenograft mice,no overt toxicity
same,Dose levels at which maximum antitumor activity was observed,HT1080 xenografts [2]; HT1080 xenografts,≥ 1 mg/kg BID
same,Change in mean tumor fBV in non-necrotic tissue,MDA MB 468 xenografts; Day 1 to Day 5,declined after Day 3
same,Change in mean K^trans in non-necrotic tissue,MDA MB 468 xenografts; Day −1 to Day 5,decreased
same,Change in mean necrotic tumor volume,MDA MB 468 xenografts; Day −1 to Day 5,rapidly increased
same,Change in mean non-necrotic tumor volume,MDA MB 468 xenografts; Day −1 to Day 5,decreased
same,Change in mean total tumor volume,MDA MB 468 xenografts; Day −1 to Day 5,little mean change
same,Concentration from which accumulation of cells in S phase is observed,HT1080 cells,≥ 1 nM
same,"Effect on cell cycle distribution (FIG. 12, FIG. 24)","HT1080 cells; Compound #10 0.3-100 nM, Compound 1205 10 nM",induced a redistribution of the cycling characteristics
same,BrdU staining of tumor cells (proportion of cells in S phase),HT1080 xenografts [3],increased BrdU staining
same,Inhibition of CYP3A4,CYP3A4,No meaningful inhibition
same,Dose of maximal exposures,[4]; 7 consecutive days,30 mg/kg/dose BID
same,Treatment-related clinical findings,"[4]; 7 days, males and females",increased incidence and frequency of soft stools
same,"Genotoxic effects, micronucleus in rats",[5],no evidence of genotoxic effects
same,Tumor perfusion in patients by DCE-MRI (FIG. 36),tumor perfusion,reduced
